Test results: patent US7148194B2, “Method to increase fibronectin” (Kimberly-Clark Worldwide, Inc., priority 2002, dated 2006)
“Also recorded” adds a separate entry of the source. Residues, ends and D or L forms follow the SMILES beside them.

Key:
EpiDerm skin model = assay: viability assay (MTT) in EpiDerm skin model; type: cell-based; settings: peptide at 500 μM and 2 mM, relative to PBS control
Method: The sample containers were transferred to 6 well plates that contained fresh media. All peptides were dissolved in PBS at a final concentration of 10 mM, and 100 μL each peptide solution was pipetted onto the surface of the Epiderm sample container. Incubation was continued for 12 hours at 37° C., 5% CO2. After the incubation period, the sample containers were washed three times with PBS and the sample containers were transferred to a 24 well plate that contained 300 μL of MTT assay media per well (MTT concentration was 1 mg/mL). The colorimetric assay was allowed to develop for three hours (incubation at 37° C., 5% CO2). Sample containers were then transferred to a 24 well culture plate that contained 2 mL of isopropanol per well. Extraction of the colored precipitate occurred over a period of four hours at room temperature. Absorbance readings were taken at 570 nm and 650 nm for each sample. The percent viability of each sample relative to a PBS control was calculated as: 100×(OD570^sam−OD650^sam)/(OD570^con−OD650^con) (6) Routinely, the peptide sample was assayed in triplicate. Results

[1] = test system: normal human dermal fibroblasts (NHDF); assay: NHDF migration assay, 48-well chemotaxis chamber; type: cell-based; settings: for induction of NHDF migration: concentrations ranging from 1000 μg/mL to 10 ng/mL (data not shown)
Method: Normal, human dermal fibroblasts (NHDF) were obtained from Biowhittaker, (Walkersville, Md.) and propagated in T75 flasks in FBM media (500 mL, Biowhittaker) containing insulin, hFGF-b, GA-1000, and fetal bovine serum (10 mL) for up to 12 passages. For the migration assay, NHDF were washed once with 10 mL of Hank's buffered saline solution (HBSS). Three milliliters of trypsin (0.25%) in EDTA were added to the T75 flask for no more than five minutes to remove NHDF from the flask. NHDF in trypsin solution were added to 7 mL of FBM with no supplements added. NHDF were centrifuged for 5 minutes, and the supernatant was removed. NHDF were resuspended in 10 mL of FBM for counting. NHDF were centrifuged for another 5 minutes, and the supernatant was removed. NHDF were resuspended at 1×10^6 cells per mL in FBM without supplements. It was important to use FBM media only in migration assays because the complete media contains fibroblast growth factor and serum, both of which will trigger migration of fibroblasts.
(§1) Peptides were synthesized and purified by the Microchemical Facility at Emory University or by SigmaGenesis. All peptides were analyzed by mass spectrometry after HPLC to assess purity. Approximately 0.5–2.0 milligrams of peptide were used to make fresh stock solutions (5 mg/mL in PBS) for each migration assay. The peptide stock solutions in PBS were used to make more dilute solutions (1 mg/mL, 100 μg/mL, 10 μg/mL, 1 μg/mL, 100 ng/mL, 10 ng/mL) in FBM (without supplements) for the migration assays.
Polyvinylpyrrolidone-free polycarbonate membranes with […] pores (Neuroprobe, Inc., Gaithersburg, Md.) were washed with 90% ethanol for 15 minutes and rinsed four times with deionized water. Membranes were then placed into a glass dish containing an aqueous solution of 5 μg/mL gelatin. The glass dish was placed in to a water bath at about 90° C. for one hour. Membranes were removed from the gelatin solution and were allowed to dry for one hour in the 37° C. incubator.
A 48-well chemotaxis chamber (Neuroprobe, Inc., Gaithersburg, Md.) (see FIG. 20) was used for the migration assays. Twenty-eight μL of each test solution were added to the bottom wells of the chamber in quadruplicate. A gelatin-treated membrane was placed carefully on top of the bottom wells. The gasket and top part of chamber were then placed carefully on top of the membrane. The apparatus was tightened using six thumbscrews. A solution of NHDF containing an estimated cell density (2×10^5 cells per mL) was made by adding 320 μL of the 1×10^6 cells per mL solution to 1.28 mL of FBM (no supplements). Fifty microliters of the 2×10^5 cells per mL NHDF solution were added to the top part of each well in the chamber. The chamber was placed in the incubator at 37° C./5% CO2 for three hours. The chamber was removed, the thumbscrews were removed, and the chamber was turned upside down on a paper towel. […] The membrane was carefully removed. […] The membrane was fixed with methanol and stained using the Diff-Quik Staining Solutions I and II. The nuclei of NHDF are stained purple. The membrane was mounted on a glass slide using cedarwood immersion oil and a cover slip. […] The average number of migrated NHDF in the negative control was subtracted from the experimental (peptide) data and positive control data.

neutrophils = assay: neutrophil migration assay, transwell plate; type: cell-based, human; settings: 10 nM, positive control
Method: as §1, with “HBSS/HSA)” for “PBS)”, “solutions” for “solutions in PBS”, “ng/mL, and” for “ng/mL,”, “HBSS/HSA” for “FBM (without supplements)”, “the” for “the migration”
Neutrophils were isolated from human blood (collected in Vacutainer™ tubes containing EDTA) by layering the blood/EDTA mixture (about 20 mL) on top of two layers of Histopaque™ 1119 (bottom layer, 18 mL) and 1077 (top layer, 7 mL) in 50 mL Falcon tubes. The tubes were centrifuged at 1800 rpm for 30 minutes (no brake). Four layers appeared in the tubes after the spin (from top to bottom layers): plasma, 1077, 1119, and red blood cells. The buffy coat between the plasma and 1077 layers contained lymphocytes, monocytes, and some platelets. The plasma layer, the buffy coat, and most of the 1077 layer was removed and discarded. The 1119 layer that contained the neutrophils was removed and was placed into a clean 50 mL tube. Dulbecco's Phosphate Buffered Saline (DPBS) was added to bring the volume to 50 mL. The cells were centrifuged for 15 minutes at 2100 rpm. The cells were resuspended in 10 mL of DPBS, transferred to 15 mL tubes, and centrifuged again for 10 minutes at 2000 rpm. This process was repeated to wash the cells a second time. After the supernatant was removed, the red blood cells were lysed by adding 6 mL of cold sterile water to each 15 mL of supernatant. Cells were mixed in the water for only 30 seconds. Six mL of cold 2% sterile saline was then added. Cells were centrifuged again for 10 minutes at 2000 rpm. The red supernatant (containing hemoglobin from red blood cells) was removed. This process of red blood cell lysis was repeated two more times to remove all of the red blood cells. After most of the red blood cells were removed, neutrophils were resuspended in 10 mL of HBSS/HSA for counting with trypan blue.
A neutrophil migration assay was performed in duplicate using a 24-well transwell plate (3 μm pore size for membrane). Transwell membranes were pre-moistened with 20–40 μL of HBSS/HSA (0.04–0.4%). Chemotactic solutions (500 μL) were added to the bottom of each well. […] Transwells were then placed into the chemotactic solutions. The plate was placed into the incubator (37° C., 5% CO2) for one hour. Cells that migrated through the membrane were counted using trypan blue.
In the neutrophil migration experiments, neutrophils that were isolated were approximately 95% viable. […]

Molecule: CC(C)[C@H](NC(=O)[C@H](CC(=O)O)NC(=O)[C@@H]1CCCN1C(=O)[C@H](CC(N)=O)NC(=O)CNC(=O)[C@H](CS)NC(=O)[C@H](CCCNC(=N)N)NC(=O)[C@@H]1CCCN1)C(=O)N[C@@H](C)C(=O)O [Peptide 9-mer] (H-PRCGNPDVA-OH; N-terminus and C-terminus assumed)
- total average viability (EpiDerm skin model): 95.8%
- NHDF migration, percent of the plasma fibronectin positive control ([1]; 100 μg/mL peptide): 16±10%
- NHDF migration, percent of the plasma fibronectin positive control ([1]; 1000 μg/mL peptide): 32±2%

Molecule: N=C(N)NCCC[C@H](NC(=O)[C@@H]1CCCN1C(=O)[C@H](Cc1ccccc1)NC(=O)[C@H](Cc1ccccc1)NC(=O)[C@H](CC(N)=O)NC(=O)[C@H](Cc1ccc(O)cc1)NC(=O)[C@@H](N)CC(N)=O)C(=O)N[C@@H](CCCCN)C(=O)N1CCC[C@H]1C(=O)N[C@@H](CCCCN)C(=O)O [Peptide 10-mer] (H-NYNFFPRKPK-OH; N-terminus and C-terminus assumed)
- total average viability (EpiDerm skin model): 89.6%
- NHDF migration, percent of the plasma fibronectin positive control ([1]; 100 μg/mL peptide): 11±0%
- NHDF migration, percent of the plasma fibronectin positive control ([1]; 1000 μg/mL peptide): 30±2%

Molecule: IL-8: positive control for neutrophil migration, 10 nM [reference compound]
- Percent Neutrophil Migration exp. 2 (neutrophils; 0.04% HSA): 51%
- Percent Neutrophil Migration exp. 1 (neutrophils; 0.4% HSA): 81%

Molecule: TLKAMRKPRCGNPDVAN (listed as Homo sapiens) [Peptide 17-mer]
- induction of NHDF migration [1]: not chemotactic to NHDF at any concentration; also recorded: did not induce NHDF migration; also recorded: no effect on fibroblast mobility

Molecule: TMRKPRCGNPDVAN (listed as Homo sapiens) [Peptide 14-mer]
- induction of NHDF migration [1]: not chemotactic to NHDF at any concentration; also recorded: did not induce NHDF migration; also recorded: no effect on fibroblast mobility
